PMC4610307 (Journal of Medicinal Chemistry, 2015)
Values belong to the molecule of their own block, whether it stands above or below them.

What was measured:
PRMT1 [1] = molecular target: T1, PRMT1 (Homo sapiens, UniProt Q99873); assay: IC50 and nH determination, PRMT1; type: biochemical
CARM1/PRMT4 = molecular target: T2, CARM1/PRMT4 (Homo sapiens, UniProt Q86X55); assay: IC50 and nH determination, CARM1; type: biochemical; details: ratio of IC50 values
T2 sequence (Q86X55 1-608): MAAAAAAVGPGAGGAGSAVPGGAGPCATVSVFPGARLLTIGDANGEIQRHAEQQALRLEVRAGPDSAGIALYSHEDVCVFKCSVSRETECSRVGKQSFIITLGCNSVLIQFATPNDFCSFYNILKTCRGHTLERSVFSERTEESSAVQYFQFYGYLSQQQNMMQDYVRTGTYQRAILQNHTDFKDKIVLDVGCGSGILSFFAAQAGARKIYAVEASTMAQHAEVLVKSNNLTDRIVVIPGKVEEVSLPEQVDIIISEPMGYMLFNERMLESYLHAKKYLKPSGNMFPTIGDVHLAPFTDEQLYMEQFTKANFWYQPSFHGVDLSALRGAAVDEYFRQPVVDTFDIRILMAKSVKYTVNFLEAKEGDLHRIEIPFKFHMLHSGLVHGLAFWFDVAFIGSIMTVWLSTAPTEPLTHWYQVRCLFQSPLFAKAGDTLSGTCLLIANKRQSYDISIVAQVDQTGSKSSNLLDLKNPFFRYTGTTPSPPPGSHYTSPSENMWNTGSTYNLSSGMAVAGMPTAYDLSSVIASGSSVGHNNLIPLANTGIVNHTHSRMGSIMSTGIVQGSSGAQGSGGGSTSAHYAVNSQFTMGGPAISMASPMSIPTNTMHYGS

PRMT8 = PRMT8 (Homo sapiens, UniProt Q9NR22); assay: IC50 and nH determination, PRMT8; type: biochemical; details: ratio of IC50 values
PRMT8, sequence (Q9NR22 whole entry, species assumed): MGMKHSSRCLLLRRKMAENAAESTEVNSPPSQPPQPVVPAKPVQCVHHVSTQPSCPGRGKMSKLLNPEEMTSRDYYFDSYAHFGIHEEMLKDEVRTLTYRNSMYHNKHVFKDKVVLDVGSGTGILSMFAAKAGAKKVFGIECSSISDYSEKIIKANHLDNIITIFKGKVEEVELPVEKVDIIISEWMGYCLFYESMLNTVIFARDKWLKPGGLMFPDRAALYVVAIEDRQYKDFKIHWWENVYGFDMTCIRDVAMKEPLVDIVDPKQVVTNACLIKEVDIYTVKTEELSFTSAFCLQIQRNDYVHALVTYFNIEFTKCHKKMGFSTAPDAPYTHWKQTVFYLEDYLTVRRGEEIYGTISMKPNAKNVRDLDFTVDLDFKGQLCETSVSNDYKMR

PRMT5 = PRMT5 (Homo sapiens, UniProt O14744); assay: IC50 and nH determination, PRMT5; type: biochemical; details: ratio of IC50 values
PRMT5, sequence (O14744 whole entry, species assumed): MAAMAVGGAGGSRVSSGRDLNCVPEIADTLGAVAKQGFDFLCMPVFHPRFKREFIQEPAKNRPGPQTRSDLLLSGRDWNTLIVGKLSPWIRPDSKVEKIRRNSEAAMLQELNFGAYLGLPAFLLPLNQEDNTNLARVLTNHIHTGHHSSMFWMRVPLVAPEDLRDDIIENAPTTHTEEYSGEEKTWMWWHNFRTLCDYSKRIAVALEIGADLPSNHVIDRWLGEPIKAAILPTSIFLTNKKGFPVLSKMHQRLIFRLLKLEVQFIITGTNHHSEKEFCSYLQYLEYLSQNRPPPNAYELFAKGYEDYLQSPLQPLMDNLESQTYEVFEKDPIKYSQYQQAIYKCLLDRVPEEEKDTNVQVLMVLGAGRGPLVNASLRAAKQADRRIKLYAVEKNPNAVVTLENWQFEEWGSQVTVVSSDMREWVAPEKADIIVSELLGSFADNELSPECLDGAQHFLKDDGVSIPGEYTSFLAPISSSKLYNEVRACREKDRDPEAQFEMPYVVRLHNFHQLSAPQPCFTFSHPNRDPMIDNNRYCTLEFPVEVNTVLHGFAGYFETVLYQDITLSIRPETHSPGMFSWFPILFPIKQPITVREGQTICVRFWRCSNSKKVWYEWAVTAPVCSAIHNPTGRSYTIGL
PRMT5, sequence (Q9BQA1 whole entry partner, species assumed): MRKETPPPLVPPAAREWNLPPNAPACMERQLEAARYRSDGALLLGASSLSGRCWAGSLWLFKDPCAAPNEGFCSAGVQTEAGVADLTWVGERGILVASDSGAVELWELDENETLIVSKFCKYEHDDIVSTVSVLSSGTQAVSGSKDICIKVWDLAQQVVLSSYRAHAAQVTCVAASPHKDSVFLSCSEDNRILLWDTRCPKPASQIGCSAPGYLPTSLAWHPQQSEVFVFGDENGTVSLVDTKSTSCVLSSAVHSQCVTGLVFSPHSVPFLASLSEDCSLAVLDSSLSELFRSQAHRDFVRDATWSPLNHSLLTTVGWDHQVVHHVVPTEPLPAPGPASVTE

His6x-PRMT1 = His6x-PRMT1 (Homo sapiens, UniProt Q99873); assay: Single-dose inhibition study with PRMT1 enzyme; type: biochemical; details: compound at 10 μM, N.I. = no inhibition
His6x-PRMT1, sequence (Q99873 1-353 isoform Q99873-3): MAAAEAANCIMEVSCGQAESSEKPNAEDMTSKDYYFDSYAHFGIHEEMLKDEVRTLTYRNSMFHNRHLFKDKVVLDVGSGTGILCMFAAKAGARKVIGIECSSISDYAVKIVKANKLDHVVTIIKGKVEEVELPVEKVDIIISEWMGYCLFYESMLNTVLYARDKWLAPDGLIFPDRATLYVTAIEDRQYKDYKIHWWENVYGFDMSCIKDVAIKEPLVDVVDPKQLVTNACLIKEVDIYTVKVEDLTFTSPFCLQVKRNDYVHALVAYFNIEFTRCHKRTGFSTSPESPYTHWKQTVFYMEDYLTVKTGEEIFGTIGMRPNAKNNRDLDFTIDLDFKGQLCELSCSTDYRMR

[2] = tested on: total protein arginine methylation in Meg01, MOLM13, and HEL cells; assay: Western blot of total protein arginine methylation in treated leukemia cells; type: cell-based; details: 24 h of treatment; anti-methyl-R antibodies
HEL cells = assay: Cell viability assay; type: cell-based
Meg01 cells = assay: Cell viability assay; type: cell-based
PRMT1 [3] = molecular target: T1, PRMT1; assay: Fluorescence titration of compound 50 by PRMT1; type: binding; details: excitation 620 nm
MOLM13 cells = assay: Cell viability assay; type: cell-based

T1 sequence (Q99873 1-353 isoform Q99873-3): as above

SMILES: CC1(C)C(/C=C/C=C2/N(CCCc3ccccc3)c3ccc(Cl)cc3C2(C)C)=[N+](CCCc2ccccc2)c2ccc(Cl)cc21.[Br-] [Compound 24, 5-Chloro-2-((E)-3-((E)-5-chloro-3,3-dimethyl-1-(3-phenylpropyl)indolin-2-ylidene)prop-1-en-1-yl)-3,3-dimethyl-1-(3-phenylpropyl)-3H-indol-1-ium Bromide]
selectivity for PRMT1 over other PRMTs (CARM1, PRMT5, and PRMT8) (PRMT1 [1]; overall statement): no selectivity

SMILES: C(/C=C/c1sc2c3ccccc3ccc2[n+]1CCCc1ccccc1)=C1/Sc2c(ccc3ccccc23)N1CCCc1ccccc1.[I-] [Compound 47, 3-(3-Phenylpropyl)-2-((1E,3Z)-3-(3-(3-phenylpropyl)naphtho[2,1-d]thiazol-2(3H)-ylidene)prop-1-en-1-yl)naphtho[2,1-d]thiazol-3-ium Iodide]
selectivity for PRMT1 over CARM1 (CARM1/PRMT4): about 2 fold | selectivity for PRMT1 over PRMT8 (PRMT8): more than 9 fold | selectivity for PRMT1 over PRMT5 (PRMT5): about 2 fold

SMILES: CCN1/C(=C/C(C)=C/c2sc3c4ccccc4ccc3[n+]2CC)Sc2c1ccc1ccccc21 [Compound 48, 3-Ethyl-2-((1E,3Z)-3-(3-ethylnaphtho[2,1-d]thiazol-2(3H)-ylidene)-2-methylprop-1-en-1-yl)naphtho[2,1-d]thiazol-3-ium Iodide]
inhibition at 10 µM (His6x-PRMT1; read-out: Inhibition (10 μM), PRMT1): 90%

SMILES: CCCCN1/C(=C/C=C(Br)/C=C/C2=[N+](CCCC)c3ccc(Br)cc3C2(C)C)C(C)(C)c2cc(Br)ccc21.[I-] [Compound 50, 5-Bromo-2-((1E,3Z)-3-bromo-5-((E)-5-bromo-1-butyl-3,3-dimethylindolin-2-ylidene)penta-1,3-dien-1-yl)-1-butyl-3,3-dimethyl-3H-indol-1-ium Iodide]
total protein arginine methylation level [2]: significant loss of total protein arginine methylation | concentration that significantly inhibited leukemia cell growth (HEL cells): 200 nM | concentration that significantly inhibited leukemia cell growth (Meg01 cells): 100 nM | fluorescence intensity increase upon binding to PRMT1 (PRMT1 [3]): about 6 fold | concentration that significantly inhibited leukemia cell growth (MOLM13 cells): 100 nM

More lines, now with the values ahead:

Inhibition (10 μM) (His6x-PRMT1; PRMT1, 10 µM): no inhibition
SMILES: CCCCN1/C(=C/C=C/C2=[N+](CCCC)c3ccccc3C2(C)C)C(C)(C)c2ccccc21.[I-] [Compound E-6]

fold more potent on PRMT1 than naphthothiazolium counterpart 47 (PRMT1 [1]; IC50 0.61 μM vs 3.05 μM): about 5 fold
SMILES: CC1(C)C(/C=C/C=C2/N(CCCc3ccccc3)c3ccc4ccccc4c3C2(C)C)=[N+](CCCc2ccccc2)c2ccc3ccccc3c21.[Br-] [Compound E-8]
